Where two headings read alike, the source gives them in different places.
Key:
NDM-1 [1] = settings: ref Chiou et al., 2015; read-out: IC50 for inhibiting NDM-1 in the hydrolysis of imipenem; cited from earlier work
[2] = test system: bacteria carrying carbapenemases; design: method as in Chiou et al., 2015; settings: ref Chiou et al., 2015; cited from earlier work
NDM-1 [3] = target: T1, NDM-1 (Klebsiella pneumoniae, UniProt C7C422); assay: Enzyme inhibition assay (nitrocefin hydrolysis); type: biochemical
T1 construct: made in house; host or cells: E. coli BL21
Experimental: (§1) According to the methodology of Liu et al. the enzyme and nitrocefin were mixed and incubated at 37°C for 10 min. Consequently, absorbance was measured at 492 nm in a microplate reader. The specific calculation method was obtained from the literature ([Liu et al., 2018b]).

[4] = design: method as in Hecker et al., 2020; settings: rats; ref Hecker et al., 2020; cited from earlier work
E. coli ZC-YN3 [5] = assay: Growth curves; type: cell-based, Escherichia coli; settings: carnosic acid alone, Figure 2A
[6] = test system: F46A-NDM-1, L65A-NDM-1, T94A-NDM-1 mutants; assay: Enzyme inhibition assay with NDM-1 mutants; type: biochemical, E. coli; settings: Figure 5E
Text: The coding sequence of the NDM-1 gene were amplified from genomic DNA of E. coli and digested with BamHI and XhoI. Subsequently, it was cloned into pET28a to generate plasmid pET28a-NDM-1. Plasmids encoding F46A-NDM-1, L65A-NDM-1, and T94A-NDM-1 were constructed using a QuikChange site-directed mutagenesis kit. The ligation product was transformed into competent E. coli DH5α cells. All constructed strains were verified by PCR and DNA sequencing ([Ali et al., 2018]). The NDM-1 primer came from the literature ([Teng et al., 2019]), and the other primers were designed in this experiment.
as §1

L65A-NDM-1 [7] = target: T2, L65A-NDM-1 (Klebsiella pneumoniae, UniProt C7C422, L65A); assay: Fluorescence-quenching assay; type: binding, E. coli; settings: L65A-NDM-1, 300 K
Experimental: (§2) The binding constant (KA) of the binding site of carnosic acid to wild type NDM-1 (WT-NDM-1), F46A-NDM-1, L65A-NDM-1, and T94A-NDM-1 was measured using a fluorescence quenching method. The binding energy was calculated according to the equation: r/Df = nK − rK. This method referred to the previous literature ([Wang J. F. et al., 2015]), using an excitation wavelength of 280 nm and an emission wavelength of 345 nm.

WT-NDM-1 [8] = target: T3, WT-NDM-1 (Klebsiella pneumoniae, UniProt C7C422); assay: Fluorescence-quenching assay; type: binding, E. coli; settings: WT-NDM-1, 300 K
T3 construct: made in house; host or cells: E. coli BL21
Experimental: as §2

F46A-NDM-1 [9] = target: T4, F46A-NDM-1 (Klebsiella pneumoniae, UniProt C7C422, F46A); assay: Fluorescence-quenching assay; type: binding, E. coli; settings: F46A-NDM-1, 300 K
Experimental: as §2

T94A-NDM-1 [10] = target: T5, T94A-NDM-1 (Klebsiella pneumoniae, UniProt C7C422, T94A); assay: Fluorescence-quenching assay; type: binding, E. coli; settings: T94A-NDM-1, 300 K
Experimental: as §2

L65A-NDM-1 [11] = target: T2, L65A-NDM-1; assay: Enzyme reaction rate (steady-state kinetics, nitrocefin); type: biochemical, E. coli; settings: L65A treated with carnosic acid
Experimental: (§3) The principle of the measurement is mainly by using nitrocefin as an indicator, and its color changes from yellow to red with the increase of hydrolysis. NDM-1 (250 ng/ml) was incubated with various concentrations of carnosic acid in phosphate buffered saline, and then 50 μg/m L of nitrocefin was added to the mixture ([Teng et al., 2019]). The reaction rate was determined by continuously measuring the absorbance at OD492 nm at different times ([Krupyanko, 2009]).

WT-NDM-1 [12] = target: T3, WT-NDM-1; assay: as above; type: biochemical, E. coli; settings: WT-NDM-1 treated with carnosic acid
Experimental: as §3

F46A-NDM-1 [13] = target: T4, F46A-NDM-1; assay: as above; type: biochemical, E. coli; settings: F46A treated with carnosic acid
Experimental: as §3

T94A-NDM-1 [14] = target: T5, T94A-NDM-1; assay: as above; type: biochemical, E. coli; settings: T94A treated with carnosic acid
Experimental: as §3

[15] = test system: E. coli ZC-YN3 (producing NDM-1); assay: MIC by broth microdilution / checkerboard; type: cell-based; settings: Escherichia coli
mice = settings: acute toxicity study, ref Wang et al., 2012; cited from earlier work
E. coli ZC-YN3 [16] = assay: Time-killing assay; type: cell-based, Escherichia coli; settings: after 4 hours
[17] = screening hits, Figure 1A, read-out: IC50 (converted)

T1 sequence (C7C422 29-270, looked up): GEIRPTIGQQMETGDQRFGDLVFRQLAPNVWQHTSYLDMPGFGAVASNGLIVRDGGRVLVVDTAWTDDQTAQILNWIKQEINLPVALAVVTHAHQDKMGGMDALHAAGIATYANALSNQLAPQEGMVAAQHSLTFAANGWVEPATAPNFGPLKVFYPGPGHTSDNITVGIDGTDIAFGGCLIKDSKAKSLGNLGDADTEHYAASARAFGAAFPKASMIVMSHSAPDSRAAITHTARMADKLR
T5 sequence (C7C422 29-270 T94A): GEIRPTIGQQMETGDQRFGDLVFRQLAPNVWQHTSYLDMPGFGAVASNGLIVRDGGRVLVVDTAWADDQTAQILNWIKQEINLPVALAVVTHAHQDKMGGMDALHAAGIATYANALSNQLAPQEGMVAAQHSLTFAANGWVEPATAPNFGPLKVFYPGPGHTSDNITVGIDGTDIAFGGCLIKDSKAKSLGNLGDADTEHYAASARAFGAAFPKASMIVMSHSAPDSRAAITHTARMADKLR
T2 sequence (C7C422 29-270 L65A): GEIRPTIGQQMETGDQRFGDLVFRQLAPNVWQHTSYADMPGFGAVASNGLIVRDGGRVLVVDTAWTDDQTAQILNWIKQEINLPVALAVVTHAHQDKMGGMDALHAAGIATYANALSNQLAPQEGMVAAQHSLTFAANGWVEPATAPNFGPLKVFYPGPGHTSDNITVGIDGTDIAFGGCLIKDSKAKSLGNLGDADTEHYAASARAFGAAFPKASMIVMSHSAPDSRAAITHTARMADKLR
T3 sequence (C7C422 29-270 limits assumed): as the sequence (C7C422 29-270, looked up) above
T4 sequence (C7C422 29-270 F46A): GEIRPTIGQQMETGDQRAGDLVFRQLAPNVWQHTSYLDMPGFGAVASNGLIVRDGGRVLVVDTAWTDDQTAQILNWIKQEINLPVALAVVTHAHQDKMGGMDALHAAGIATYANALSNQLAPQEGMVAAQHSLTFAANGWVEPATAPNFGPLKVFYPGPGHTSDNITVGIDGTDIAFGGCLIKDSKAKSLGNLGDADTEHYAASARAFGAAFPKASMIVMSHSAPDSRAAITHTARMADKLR

For `C[C@H](CS)C(=O)N1CCC[C@H]1C(=O)O` [L-captopril], the IC50 (NDM-1 [1]) is listed as […] and the “effect on bacteria carrying carbapenemases” value [2] is listed as “no effect”.

Molecule `O=C(O)/C=C/c1ccccc1` [Cinnamic Acid] has an IC50 (NDM-1 [3]) of 225 µM.

`O=c1c(-c2ccc(O[C@@H]3O[C@H](CO)[C@@H](O)[C@H](O)[C@H]3O)cc2)coc2cc(O)cc(O)c12` [Sophoricoside] showed an IC50 (NDM-1 [3]; [17]) of 152 µM.

For `C[C@H](CS)C(=O)N1CCC[C@@H]1C(=O)O` [D-captopril], the IC50 (NDM-1 [1]) is listed as […] and the “effect on bacteria carrying carbapenemases” value [2] is listed as “no effect”.

`O=C1C[C@@H](c2ccc(O[C@@H]3O[C@H](CO)[C@@H](O)[C@H](O)[C@H]3O)cc2)Oc2cc(O)ccc21` [Liquiritin] showed an IC50 (NDM-1 [3]) of 130 µM.

Work on `C[N+](C)(C)CC(=O)O` [Betaine] yielded an IC50 (NDM-1 [3]; [17]) of 355 µM.

In the case of `CCCCC/C=C\C/C=C\CCCCCCCC(=O)O` [Linolate], the IC50 (NDM-1 [3]; [17]) is reported as 218 µM.

For `O=C(O)c1c(F)ccc2c1OB(O)[C@@H]1C[C@H]21` [QPX7728], the oral bioavailability [4] is listed as “good oral bioavailability”.

For `CC(C)c1cc2c(c(O)c1O)[C@@]1(C(=O)O)CCCC(C)(C)[C@@H]1CC2` [carnosic acid], the IC50 (NDM-1 [3]) was 27.1 µM, the “decrease of protein activity” value (NDM-1 [3]; 8 μg/ml carnosic acid) was 48.56% and the “activity of the protein (remaining)” value (NDM-1 [3]; 32 μg/ml carnosic acid) was 19.85%. The effect on growth (E. coli ZC-YN3 [5]) was “nor inhibitory effect on the growth of E. coli ZC-YN3”, the “effect on the activity of mutants” value [6] was “no obvious effect on the activity of mutants” and the “Binding constants K” value (L65A-NDM-1 [7]) was 0.336 mL/µg. For the same molecule, the “Binding constants K” value (WT-NDM-1 [8]) was 0.4564 mL/µg, the “Binding constants K” value (F46A-NDM-1 [9]) was 0.1272 mL/µg and the “Binding constants K” value (T94A-NDM-1 [10]) was 0.3291 mL/µg. For the same molecule, the “hydrolysis reaction rate (slope of absorbance at 492 nm vs time)” value (L65A-NDM-1 [11]) was 0.02164, the “hydrolysis reaction rate (slope of absorbance at 492 nm vs time)” value (WT-NDM-1 [12]) was 0.00742 and the “hydrolysis reaction rate (slope of absorbance at 492 nm vs time)” value (F46A-NDM-1 [13]) was 0.0225. The “hydrolysis reaction rate (slope of absorbance at 492 nm vs time)” value (T94A-NDM-1 [14]) was 0.02277, the MIC [15] was over 32 µg/mL and the oral lethal dose (mice) was “greater than 7000 mg/kg”.

`O=C(/C=C/c1ccc(O)cc1)c1ccc(O)cc1O` [6'-Deoxychalcone] gave an IC50 (NDM-1 [3]) of 163 µM.

For `C[C@@H](O)[C@H]1C(=O)N2C(C(=O)O)=C(S[C@@H]3CN[C@H](C(=O)N(C)C)C3)[C@H](C)[C@H]12` [Meropenem, meropenem, reference compound], the “inhibitory effect on E. coli (time-kill)” value (E. coli ZC-YN3 [16]) was “weakened” and the MIC ([15]; meropenem alone, read-out: MIC of meropenem) was 16 µg/mL.

`COc1cc(O)cc2c1C(=O)C[C@@H](c1ccccc1)O2` [Alpinetin] showed an IC50 (NDM-1 [3]) of 122 µM.

From publication PMC7566295, “Discovery of a Novel Natural Allosteric Inhibitor That Targets NDM-1 Against Escherichia coli” (Frontiers in Pharmacology, 2020)
